From paper PMC12586182 (Frontiers in Oncology, 2025)

What was measured:
[1] = target: T1, HER4 (Homo sapiens, UniProt Q15303); assay: Kinase panel profiling at 1 µmol/L (mobility shift assay, Carna); format: biochemical; details: 1 µmol/L of BTK inhibitor
T1 construct: purchased Carna Biosciences

[2] = target: T2, LYNb (Homo sapiens, UniProt P07948); assay: as above; format: biochemical; details: 1 µmol/L of BTK inhibitor
T2 construct: purchased Carna Biosciences

[3] = target: T3, TNK1 (Homo sapiens, UniProt Q13470); assay: as above; format: biochemical; details: 1 µmol/L of BTK inhibitor
T3 construct: purchased Carna Biosciences
T3 sequence (Q13470 1-666): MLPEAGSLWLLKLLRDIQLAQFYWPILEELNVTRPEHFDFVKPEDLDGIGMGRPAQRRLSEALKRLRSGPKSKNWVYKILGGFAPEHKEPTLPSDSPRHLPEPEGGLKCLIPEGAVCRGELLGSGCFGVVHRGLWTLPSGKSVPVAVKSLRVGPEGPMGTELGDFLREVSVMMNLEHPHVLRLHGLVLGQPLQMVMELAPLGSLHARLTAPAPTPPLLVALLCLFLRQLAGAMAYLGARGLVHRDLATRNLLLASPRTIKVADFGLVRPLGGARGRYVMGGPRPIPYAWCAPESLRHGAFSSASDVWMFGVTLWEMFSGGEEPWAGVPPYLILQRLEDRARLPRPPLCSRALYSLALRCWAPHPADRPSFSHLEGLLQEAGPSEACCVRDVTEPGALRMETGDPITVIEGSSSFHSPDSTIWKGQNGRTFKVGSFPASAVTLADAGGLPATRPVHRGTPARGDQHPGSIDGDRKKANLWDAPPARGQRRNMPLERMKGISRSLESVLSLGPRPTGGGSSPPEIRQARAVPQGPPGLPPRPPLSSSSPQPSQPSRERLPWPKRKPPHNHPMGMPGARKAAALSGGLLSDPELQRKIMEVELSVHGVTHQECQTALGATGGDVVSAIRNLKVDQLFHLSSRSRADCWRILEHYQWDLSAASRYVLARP

[4] = target: T4, CaMK2δ (Homo sapiens, UniProt Q13557); assay: as above; format: biochemical; details: 1 µmol/L of BTK inhibitor
T4 construct: purchased Carna Biosciences

[5] = target: T5, DYRK3 (Homo sapiens, UniProt O43781); assay: as above; format: biochemical; details: 1 µmol/L of BTK inhibitor
T5 construct: purchased Carna Biosciences
T5 sequence (O43781 1-588): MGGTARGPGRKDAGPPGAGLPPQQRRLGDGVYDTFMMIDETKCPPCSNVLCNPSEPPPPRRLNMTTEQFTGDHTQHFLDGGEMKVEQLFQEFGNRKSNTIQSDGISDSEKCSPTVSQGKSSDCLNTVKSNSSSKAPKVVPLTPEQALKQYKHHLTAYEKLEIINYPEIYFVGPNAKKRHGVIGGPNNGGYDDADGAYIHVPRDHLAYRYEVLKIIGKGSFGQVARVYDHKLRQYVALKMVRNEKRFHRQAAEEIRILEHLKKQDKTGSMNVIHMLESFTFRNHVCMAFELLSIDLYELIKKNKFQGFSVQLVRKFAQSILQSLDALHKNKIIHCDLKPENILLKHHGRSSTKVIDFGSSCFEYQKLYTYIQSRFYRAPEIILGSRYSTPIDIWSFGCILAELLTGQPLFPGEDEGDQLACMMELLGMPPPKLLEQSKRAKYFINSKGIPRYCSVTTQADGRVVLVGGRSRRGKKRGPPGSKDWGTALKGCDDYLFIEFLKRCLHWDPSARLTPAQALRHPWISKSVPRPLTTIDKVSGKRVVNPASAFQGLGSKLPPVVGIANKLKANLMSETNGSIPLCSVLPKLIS

[6] = target: T6, HIPK2 (Homo sapiens, UniProt Q9H2X6); assay: as above; format: biochemical; details: 1 µmol/L of BTK inhibitor
T6 construct: purchased Carna Biosciences

[7] = target: T7, MARK3 (Homo sapiens, UniProt P27448); assay: as above; format: biochemical; details: 1 µmol/L of BTK inhibitor
T7 construct: purchased Carna Biosciences

[8] = target: T8, NEK7 (Homo sapiens, UniProt Q8TDX7); assay: as above; format: biochemical; details: 1 µmol/L of BTK inhibitor
T8 construct: purchased Carna Biosciences

[9] = target: T9, WNK2 (Homo sapiens, UniProt Q9Y3S1); assay: as above; format: biochemical; details: 1 µmol/L of BTK inhibitor
T9 construct: purchased Carna Biosciences

[10] = target: T10, TEC (Homo sapiens, UniProt P42680); assay: Kinase enzyme activity assay (mobility shift assay, Carna); details: for Percentage inhibition of kinase enzyme activity: TEC, 1 µmol/L of BTK inhibitor
T10 sequence (P42680 1-631): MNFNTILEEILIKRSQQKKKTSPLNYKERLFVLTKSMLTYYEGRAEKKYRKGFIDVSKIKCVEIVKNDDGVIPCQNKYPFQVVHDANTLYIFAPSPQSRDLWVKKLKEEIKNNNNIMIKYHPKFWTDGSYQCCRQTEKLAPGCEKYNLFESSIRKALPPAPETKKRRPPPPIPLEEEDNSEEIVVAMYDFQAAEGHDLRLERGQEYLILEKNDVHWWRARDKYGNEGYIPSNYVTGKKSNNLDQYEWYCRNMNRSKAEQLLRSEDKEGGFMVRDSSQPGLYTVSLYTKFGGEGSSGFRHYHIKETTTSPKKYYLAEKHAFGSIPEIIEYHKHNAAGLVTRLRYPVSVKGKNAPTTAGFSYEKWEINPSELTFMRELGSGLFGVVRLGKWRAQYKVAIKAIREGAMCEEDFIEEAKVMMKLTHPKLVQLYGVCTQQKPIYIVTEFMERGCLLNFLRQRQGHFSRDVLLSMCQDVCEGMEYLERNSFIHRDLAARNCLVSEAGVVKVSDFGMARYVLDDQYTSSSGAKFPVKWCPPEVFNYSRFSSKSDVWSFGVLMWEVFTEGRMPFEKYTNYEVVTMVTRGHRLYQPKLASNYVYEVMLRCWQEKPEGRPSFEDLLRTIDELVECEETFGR

T1 sequence (Q15303 26-1308): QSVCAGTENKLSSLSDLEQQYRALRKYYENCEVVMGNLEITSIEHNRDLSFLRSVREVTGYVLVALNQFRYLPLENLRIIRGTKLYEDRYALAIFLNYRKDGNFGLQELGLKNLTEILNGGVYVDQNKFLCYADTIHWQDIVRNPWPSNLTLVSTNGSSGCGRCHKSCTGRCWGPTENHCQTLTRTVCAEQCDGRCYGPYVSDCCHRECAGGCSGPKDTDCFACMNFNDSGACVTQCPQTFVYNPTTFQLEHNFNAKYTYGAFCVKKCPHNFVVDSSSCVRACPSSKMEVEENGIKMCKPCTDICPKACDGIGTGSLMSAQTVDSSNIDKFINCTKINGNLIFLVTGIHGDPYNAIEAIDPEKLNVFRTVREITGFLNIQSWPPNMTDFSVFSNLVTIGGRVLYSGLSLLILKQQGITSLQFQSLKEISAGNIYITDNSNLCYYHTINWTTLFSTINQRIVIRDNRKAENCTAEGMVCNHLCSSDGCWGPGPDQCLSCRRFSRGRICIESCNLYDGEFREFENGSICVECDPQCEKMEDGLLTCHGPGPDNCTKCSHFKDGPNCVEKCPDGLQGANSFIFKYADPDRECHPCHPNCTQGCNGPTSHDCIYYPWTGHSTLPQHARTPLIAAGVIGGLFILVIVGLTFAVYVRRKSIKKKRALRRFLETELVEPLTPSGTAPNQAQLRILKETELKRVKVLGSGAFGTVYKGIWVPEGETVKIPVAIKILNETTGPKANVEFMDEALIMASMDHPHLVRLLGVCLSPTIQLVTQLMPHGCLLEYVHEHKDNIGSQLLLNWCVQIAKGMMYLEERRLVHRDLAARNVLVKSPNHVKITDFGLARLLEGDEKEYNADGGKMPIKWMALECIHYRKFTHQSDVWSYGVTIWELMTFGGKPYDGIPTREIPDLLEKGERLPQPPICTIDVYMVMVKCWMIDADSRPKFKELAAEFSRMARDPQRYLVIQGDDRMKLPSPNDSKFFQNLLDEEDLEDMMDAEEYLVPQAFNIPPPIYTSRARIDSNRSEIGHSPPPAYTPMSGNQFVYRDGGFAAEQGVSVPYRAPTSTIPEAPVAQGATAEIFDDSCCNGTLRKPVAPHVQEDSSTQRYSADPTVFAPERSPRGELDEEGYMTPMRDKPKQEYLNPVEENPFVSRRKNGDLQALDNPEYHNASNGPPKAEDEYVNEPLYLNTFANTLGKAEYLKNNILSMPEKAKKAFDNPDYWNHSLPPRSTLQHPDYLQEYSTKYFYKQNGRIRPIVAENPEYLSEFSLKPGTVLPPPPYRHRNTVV
T2 sequence (P07948 1-491 isoform P07948-2): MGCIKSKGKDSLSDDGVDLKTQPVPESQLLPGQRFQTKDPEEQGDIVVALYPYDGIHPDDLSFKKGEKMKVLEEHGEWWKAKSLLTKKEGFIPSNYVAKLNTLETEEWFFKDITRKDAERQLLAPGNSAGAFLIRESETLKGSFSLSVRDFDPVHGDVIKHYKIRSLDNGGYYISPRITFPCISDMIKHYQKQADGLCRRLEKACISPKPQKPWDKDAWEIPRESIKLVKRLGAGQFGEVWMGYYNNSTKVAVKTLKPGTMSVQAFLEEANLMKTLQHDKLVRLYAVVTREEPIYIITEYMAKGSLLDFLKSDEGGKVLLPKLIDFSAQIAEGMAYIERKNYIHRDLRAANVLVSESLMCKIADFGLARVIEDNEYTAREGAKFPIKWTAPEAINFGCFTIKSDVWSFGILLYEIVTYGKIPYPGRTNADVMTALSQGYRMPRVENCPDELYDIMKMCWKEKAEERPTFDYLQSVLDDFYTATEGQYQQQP
T8 sequence (Q8TDX7 whole entry): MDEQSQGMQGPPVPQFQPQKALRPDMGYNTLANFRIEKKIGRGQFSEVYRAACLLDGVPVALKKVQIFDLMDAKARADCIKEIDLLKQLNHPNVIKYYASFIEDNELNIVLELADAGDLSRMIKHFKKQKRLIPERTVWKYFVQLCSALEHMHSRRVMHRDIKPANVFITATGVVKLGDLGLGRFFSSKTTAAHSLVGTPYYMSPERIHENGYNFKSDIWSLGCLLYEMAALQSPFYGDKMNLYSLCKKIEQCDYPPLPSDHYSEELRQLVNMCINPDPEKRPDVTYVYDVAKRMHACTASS
T4 sequence (Q13557 whole entry): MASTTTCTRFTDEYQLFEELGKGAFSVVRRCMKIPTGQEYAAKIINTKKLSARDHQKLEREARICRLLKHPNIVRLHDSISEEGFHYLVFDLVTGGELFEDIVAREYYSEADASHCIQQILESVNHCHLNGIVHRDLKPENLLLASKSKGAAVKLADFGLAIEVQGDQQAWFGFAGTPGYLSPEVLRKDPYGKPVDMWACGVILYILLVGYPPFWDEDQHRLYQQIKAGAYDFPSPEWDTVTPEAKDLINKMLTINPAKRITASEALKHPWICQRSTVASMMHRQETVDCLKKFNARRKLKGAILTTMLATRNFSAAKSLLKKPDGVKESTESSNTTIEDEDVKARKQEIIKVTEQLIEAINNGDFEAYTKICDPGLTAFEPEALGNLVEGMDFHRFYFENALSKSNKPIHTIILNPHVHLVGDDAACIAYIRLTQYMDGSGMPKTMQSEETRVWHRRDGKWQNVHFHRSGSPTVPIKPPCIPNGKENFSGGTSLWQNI
T7 sequence (P27448 whole entry): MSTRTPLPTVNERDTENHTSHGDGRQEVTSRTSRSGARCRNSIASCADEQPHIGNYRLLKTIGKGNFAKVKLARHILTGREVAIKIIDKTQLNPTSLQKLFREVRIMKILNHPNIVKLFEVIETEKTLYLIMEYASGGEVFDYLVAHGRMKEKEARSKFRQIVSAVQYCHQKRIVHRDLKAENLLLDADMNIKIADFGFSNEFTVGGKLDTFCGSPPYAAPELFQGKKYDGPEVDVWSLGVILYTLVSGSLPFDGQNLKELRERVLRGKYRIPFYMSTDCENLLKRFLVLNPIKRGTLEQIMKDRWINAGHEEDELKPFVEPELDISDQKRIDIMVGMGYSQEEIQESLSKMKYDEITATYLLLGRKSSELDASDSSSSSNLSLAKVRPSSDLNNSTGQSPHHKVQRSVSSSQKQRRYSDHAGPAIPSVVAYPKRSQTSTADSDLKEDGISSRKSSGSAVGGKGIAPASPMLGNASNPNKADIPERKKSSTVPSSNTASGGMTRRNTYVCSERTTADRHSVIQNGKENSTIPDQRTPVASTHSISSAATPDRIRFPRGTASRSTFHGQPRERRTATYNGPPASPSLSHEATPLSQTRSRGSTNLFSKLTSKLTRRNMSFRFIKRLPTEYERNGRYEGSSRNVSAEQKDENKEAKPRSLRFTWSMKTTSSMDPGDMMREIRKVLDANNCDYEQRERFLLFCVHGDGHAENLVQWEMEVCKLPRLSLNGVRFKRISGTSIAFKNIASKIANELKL
T6 sequence (Q9H2X6 whole entry): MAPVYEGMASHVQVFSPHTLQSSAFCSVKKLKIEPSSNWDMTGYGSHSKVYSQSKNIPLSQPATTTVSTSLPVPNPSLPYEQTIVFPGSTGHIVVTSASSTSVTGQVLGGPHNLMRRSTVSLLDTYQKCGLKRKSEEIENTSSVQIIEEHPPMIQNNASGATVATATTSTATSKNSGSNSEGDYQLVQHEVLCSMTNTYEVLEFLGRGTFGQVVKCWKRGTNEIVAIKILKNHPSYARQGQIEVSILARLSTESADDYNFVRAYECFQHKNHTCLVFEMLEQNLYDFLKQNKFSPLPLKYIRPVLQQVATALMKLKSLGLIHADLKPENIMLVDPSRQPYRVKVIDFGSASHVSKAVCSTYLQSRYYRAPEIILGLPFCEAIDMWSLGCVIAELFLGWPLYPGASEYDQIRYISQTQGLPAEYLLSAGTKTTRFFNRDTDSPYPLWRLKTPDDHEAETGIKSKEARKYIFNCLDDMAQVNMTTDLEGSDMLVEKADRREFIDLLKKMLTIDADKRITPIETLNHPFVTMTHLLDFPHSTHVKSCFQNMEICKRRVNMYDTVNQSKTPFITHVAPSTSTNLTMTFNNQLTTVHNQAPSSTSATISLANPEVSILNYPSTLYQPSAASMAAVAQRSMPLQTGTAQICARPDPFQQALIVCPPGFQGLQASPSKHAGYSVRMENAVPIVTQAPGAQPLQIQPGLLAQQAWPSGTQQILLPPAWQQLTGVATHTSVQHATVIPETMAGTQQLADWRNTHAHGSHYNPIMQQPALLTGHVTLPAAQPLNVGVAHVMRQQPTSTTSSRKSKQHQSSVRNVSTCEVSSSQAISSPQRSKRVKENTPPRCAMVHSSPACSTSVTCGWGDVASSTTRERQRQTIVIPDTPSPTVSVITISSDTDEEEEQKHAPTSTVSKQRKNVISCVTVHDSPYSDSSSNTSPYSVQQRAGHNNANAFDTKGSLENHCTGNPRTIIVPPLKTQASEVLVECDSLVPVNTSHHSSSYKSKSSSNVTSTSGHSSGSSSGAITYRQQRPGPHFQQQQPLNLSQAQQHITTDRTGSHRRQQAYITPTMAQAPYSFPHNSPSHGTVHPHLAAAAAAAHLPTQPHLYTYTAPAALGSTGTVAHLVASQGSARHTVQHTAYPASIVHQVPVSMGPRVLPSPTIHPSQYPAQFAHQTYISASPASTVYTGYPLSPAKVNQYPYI

Row | Compound | Percentage inhibition of kinase enzyme activity [1] | Percentage inhibition of kinase enzyme activity [2] | Percentage inhibition of kinase enzyme activity [3] | Percentage inhibition of kinase enzyme activity [4] | Percentage inhibition of kinase enzyme activity [5] | Percentage inhibition of kinase enzyme activity [6] | Percentage inhibition of kinase enzyme activity [7] | Percentage inhibition of kinase enzyme activity [8] | Percentage inhibition of kinase enzyme activity [9] | Percentage inhibition of kinase enzyme activity [10] | IC50 [10] | inhibition at 1 µM ([10]; read-out: Inhibition of TEC)
1 | CC#CC(=O)N1CCC[C@H]1c1nc(-c2ccc(C(=O)Nc3ccccn3)cc2)c2c(N)nccn12 [acalabrutinib] | 77.61% | -1.97% | -1.80% | -3.53% | 0.35% | -11.44% | -2.57% | -10.68% | 0.79% | 95.77% | – | –
2 | C=CC(=O)N1CCC[C@@H](n2nc(-c3ccc(Oc4ccccc4)cc3)c3c(N)ncnc32)C1 [ibrutinib] | 98.60% | 100.13% | 6.17% | -0.83% | -3.93% | 2.01% | -5.88% | 0.69% | 5.67% | 91.92% | – | –
3 | O=C(c1ccc(Oc2ccccc2)cc1Cl)c1c[nH]c2ncnc(N[C@@H]3CC[C@@H](CO)OC3)c12 [nemtabrutinib] | 95.14% | 66.12% | 75.62% | 14.10% | -5.63% | 3.26% | 10.97% | 3.06% | 47.36% | 98.70% | 0.75 nM | –
4 | COc1ccc(F)cc1C(=O)NCc1ccc(-c2nn([C@@H](C)C(F)(F)F)c(N)c2C(N)=O)cc1 [pirtobrutinib] | 69.88% | 26.06% | 3.07% | -7.24% | 7.54% | 0.19% | 5.64% | -2.19% | 11.58% | 87.84% | – | > 75%
5 | C=CC(=O)N1CCC([C@@H]2CCNc3c(C(N)=O)c(-c4ccc(Oc5ccccc5)cc4)nn32)CC1 [zanubrutinib] | 2.98% | – | – | – | – | – | – | – | – | – | – | –
